The values below come from US12692261B2, “Substituted heterocyclic compounds and therapeutic uses thereof” (Bayer Aktiengesellschaft, priority 2020, dated 2026).

Common to all, as to assay type: biochemical
The target in assay [1] is T1, full-length human CSNK1A1 (Homo sapiens, UniProt P48729).
T1 construct: N-terminal Glutathion-S-Transferase (GST) and full-length human CSNK1A1; purchased Life Technologies PV4174; host or cells: baculovirus infected insect cells
Briefly: CSNK1A1 High ATP Assay (ADP-Glo, 1 mM ATP).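 Also: 30 min kinase reaction at 22 °C with 100 µM peptide substrate.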 As to conditions: Table 3, read-out: CSNK1A1 high ATP assay IC50 [mol/l] (median). Here is the method: CSNK1A1-inhibitory activity of compounds of the present invention in presence of 1 mM adenosine-tri-phosphate (ATP) was quantified employing the CSNK1A1-high-ATP-assay as described in the following paragraphs. In essence, the enzyme activity is measured by quantification of the adenosine-di-phosphate (ADP), which is generated as a co-product of the enzyme reaction, via the “ADP-Glo™ Kinase Assay” kit from the company Promega. This detection system works as follows: In a first step the ATP not consumed in the kinase reaction is quantitatively converted to cAMP employing an adenylate cyclase (“ADP-Glo-reagent”), then the adenylate cyclase is stopped and the ADP generated in the kinase reaction converted to ATP which generates in a luciferase-based reaction a glow-luminescence signal (“Kinase Detection Reagent”).
(§1) Recombinant fusion protein of N-terminal Glutathion-S-Transferase (GST) and full-length human CSNK1A1, expressed by baculovirus infected insect cells and purified via Glutathion affinity chromatography, was purchased from Life Technologies (product no. PV4174) and used as enzyme. As substrate for the kinase reaction the biotinylated peptide biotin-Ahx-KRRRAL-pS-VASLPGL (C-terminus in amide form) was used which can be purchased e.g. from the company Biosyntan (Berlin-Buch, Germany).
For the assay 50 nl of a 100 fold concentrated solution of the test compound in DMSO was pipetted into a white low volume 384-well microtiter plate (Greiner Bio-One, Frickenhausen, Germany), 2 μL of a solution of CSNK1A1 in aqueous assay buffer [50 mM HEPES pH 7.5, 10% (v/v) glycerol, 10 mM MgCl2, 50 mM NaCl, 1 mM dithiothreitol, 0.01% (w/v) bovine serum albumin, 0.01% (v/v) Triton X-100] were added and the mixture was incubated for 15 min at 22° C. to allow pre-binding of the test compounds to the enzyme before the start of the kinase reaction. […] The concentration of CSNK1A1 was adjusted depending of the activity of the enzyme lot and was chosen appropriate to have the assay in the linear range, a typical concentration is about 0.4 ng/μL. The reaction was stopped by the addition of 2.5 μL of “ADP-Glo-reagent” (1:1.5 fold diluted with water) and the resulting mixture was incubated at 22° C. for 1 h to convert the ATP not consumed in the kinase reaction completely […]. Subsequently 2.5 μL of the “kinase detection reagent” (1.2 fold more concentrated than recommended by the producer) were added, the resulting mixture was incubated at 22° C. for 1 h and then the luminescence measured with a suitable measurement instrument (e.g. Viewlux™ from Perkin-Elmer). The amount of emitted light was taken as a measure for the amount of ADP generated and thereby for the activity of the CSNK1A1.
(ADP-Glo first removes unused ATP, then detects ADP through luciferase.)

A further assay concerns the target T2, full-length human CSNK1D (Homo sapiens, UniProt P48730).
T2 construct: N-terminal Glutathion-S-Transferase (GST) and full-length human CSNK1D; purchased Life Technologies PV3665; host or cells: baculovirus infected insect cells
The experiment in a line: CSNK1D Assay (ADP-Glo, 1 μM ATP). As to conditions: Table 3, read-out: CSNK1D IC50 [mol/l] (median). Here is the method: CSNK1D-inhibitory activity of compounds of the present invention in presence of 1 μM adenosine-tri-phosphate (ATP) was quantified employing the CSNK1 D assay as described in the following paragraphs. In essence, the enzyme activity is measured by quantification of the adenosine-di-phosphate (ADP), which is generated as a co-product of the enzyme reaction, via the “ADP-Glo™ Kinase Assay” kit from the company Promega. This detection system works as follows: In a first step the ATP not consumed in the kinase reaction is quantitatively converted to cAMP employing an adenylate cyclase (“ADP-Glo-reagent”), then the adenylate cyclase is stopped and the ADP generated in the kinase reaction converted to ATP which generates in a luciferase-based reaction a glow-luminescence signal (“Kinase Detection Reagent”).
Recombinant fusion protein of N-terminal Glutathion-S-Transferase (GST) and full-length human CSNK1D, expressed by baculovirus infected insect cells and purified via Glutathion affinity chromatography, was purchased from Life Technologies (product no. PV3665) and used as enzyme. As substrate for the kinase reaction the biotinylated peptide Btn-Ahx-[…] (C-terminus in amide form) was used which can be purchased e.g. from the company Biosyntan (Berlin-Buch, Germany).
For the assay 50 nl of a 100 fold concentrated solution of the test compound in DMSO was pipetted into a white 1536-well microtiter plate (Greiner Bio-One, Frickenhausen, Germany), 2 μL of a solution of CSNK1D in aqueous assay buffer [50 mM HEPES pH 7.5, 10% (v/v) glycerol, 10 mM MgCl2, 50 mM NaCl, 1 mM dithiothreitol, 0.01% (w/v) bovine serum albumin, 0.01% (v/v) Triton X-100] were added and the mixture was incubated for 15 min at 22° C. to allow pre-binding of the test compounds to the enzyme before the start of the kinase reaction. […] The concentration of CSNK1D was adjusted depending of the activity of the enzyme lot and was chosen appropriate to have the assay in the linear range, a typical concentration is about 0.5 ng/μL. The reaction was stopped by the addition of 2.5 μL of “ADP-Glo-reagent” (1:1.5 fold diluted with water) and the resulting mixture was incubated at 22° C. for 1 h to convert the ATP not consumed in the kinase reaction completely […]. Subsequently 2.5 μL of the “kinase detection reagent” (1.2 fold more concentrated than recommended by the producer) were added, the resulting mixture was incubated at 22° C. for 1 h and then the luminescence measured with a suitable measurement instrument (e.g. Viewlux™ from Perkin-Elmer). The amount of emitted light was taken as a measure for the amount of ADP generated and thereby for the activity of the CSNK1D.

In assay [2] the target is T1, full-length human CSNK1A1. The experiment in a line: CSNK1A1 Assay 2 (ADP-Glo, 1 μM ATP, substrate biotin-Ahx-KRRRAL-pS-VASLPGL). As to conditions: Table 3, read-out: CSNK1A1 Assay 2 IC50 [mol/l] (median). Here is the method: CSNK1A1-inhibitory activity of compounds of the present invention in presence of 1 μM adenosine-tri-phosphate (ATP) was quantified employing the CSNK1A1 assay as described in the following paragraphs. In essence, the enzyme activity is measured by quantification of the adenosine-di-phosphate (ADP), which is generated as a co-product of the enzyme reaction, via the “ADP-Glo™ Kinase Assay” kit from the company Promega. This detection system works as follows: In a first step the ATP not consumed in the kinase reaction is quantitatively converted to cAMP employing an adenylate cyclase (“ADP-Glo-reagent”), then the adenylate cyclase is stopped and the ADP generated in the kinase reaction converted to ATP which generates in a luciferase-based reaction a glow-luminescence signal (“Kinase Detection Reagent”).
as §1
For the assay 50 nl of a 100 fold concentrated solution of the test compound in DMSO was pipetted into a white 1536-well microtiter plate (Greiner Bio-One, Frickenhausen, Germany), 2 μL of a solution of CSNK1A1 in aqueous assay buffer [50 mM HEPES pH 7.5, 10% (v/v) glycerol, 10 mM MgCl2, 50 mM NaCl, 1 mM dithiothreitol, 0.01% (w/v) bovine serum albumin, 0.01% (v/v) Triton X-100] were added and the mixture was incubated for 15 min at 22° C. to allow pre-binding of the test compounds to the enzyme before the start of the kinase reaction. […] The concentration of CSNK1A1 was adjusted depending of the activity of the enzyme lot and was chosen appropriate to have the assay in the linear range, a typical concentrations are about 0.0375 ng/μL. The reaction was stopped by the addition of 2.5 μL of “ADP-Glo-reagent” (1:1.5 fold diluted with water) and the resulting mixture was incubated at 22° C. for 1 h to convert the ATP not consumed in the kinase reaction completely […]. Subsequently 2.5 μL of the “kinase detection reagent” (1.2 fold more concentrated than recommended by the producer) were added, the resulting mixture was incubated at 22° C. for 1 h and then the luminescence measured with a suitable measurement instrument (e.g. Viewlux™ from Perkin-Elmer). The amount of emitted light was taken as a measure for the amount of ADP generated and thereby for the activity of the CSNK1A1.

T2 sequence (P48730 whole entry): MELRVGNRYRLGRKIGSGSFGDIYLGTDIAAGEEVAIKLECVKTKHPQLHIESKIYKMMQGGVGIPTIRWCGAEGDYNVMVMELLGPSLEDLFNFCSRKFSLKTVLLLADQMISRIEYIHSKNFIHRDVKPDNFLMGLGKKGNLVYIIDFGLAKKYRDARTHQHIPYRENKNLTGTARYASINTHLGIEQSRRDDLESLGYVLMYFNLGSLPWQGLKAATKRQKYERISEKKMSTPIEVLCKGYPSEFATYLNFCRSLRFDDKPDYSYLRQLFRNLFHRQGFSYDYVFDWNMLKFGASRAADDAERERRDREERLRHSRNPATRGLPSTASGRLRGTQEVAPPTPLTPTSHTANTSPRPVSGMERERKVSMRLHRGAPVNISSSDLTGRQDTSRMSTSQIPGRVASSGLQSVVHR
T1 sequence (P48729 whole entry): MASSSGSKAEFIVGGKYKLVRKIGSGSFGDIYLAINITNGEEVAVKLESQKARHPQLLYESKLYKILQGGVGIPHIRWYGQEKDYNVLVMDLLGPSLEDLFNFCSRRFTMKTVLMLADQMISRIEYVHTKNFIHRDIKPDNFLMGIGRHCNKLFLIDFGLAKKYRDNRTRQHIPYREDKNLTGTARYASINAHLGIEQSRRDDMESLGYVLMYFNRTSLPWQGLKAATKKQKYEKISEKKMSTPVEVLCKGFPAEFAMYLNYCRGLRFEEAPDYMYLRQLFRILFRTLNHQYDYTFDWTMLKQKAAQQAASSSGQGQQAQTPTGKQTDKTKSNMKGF

As to `COCCOc1cc(F)nc2c(-c3ccccn3)c(-c3ccnc(NC(=O)C(CC(F)F)c4ccc(F)cc4)c3)[nH]c12` (single isomer, unassigned) [Example 90, (2R or S)-4,4-difluoro-N-{4-[5-fluoro-7-(2-methoxyethoxy)-3-(pyridin-2-yl)-1H-pyrrolo[3,2-b]pyridin-2-yl]pyridin-2-yl}-2-(4-fluorophenyl)butanamide], the IC50 was determined as 2.43 nM in assay [1], 2.5 nM at full-length human CSNK1D and 2.43 nM in assay [2].

On to `O=C(Nc1cc(-c2[nH]c3c(OC4CC4)cc(F)nc3c2-c2ccccn2)ccn1)C(CC(F)F)c1ccc(F)cc1` (single isomer, unassigned) [Example 44, N-{4-[7-(cyclopropyloxy)-5-fluoro-3-(pyridin-2-yl)-1H-pyrrolo[3,2-b]pyridin-2-yl]pyridin-2-yl}-4,4-difluoro-2-(4-fluorophenyl)butanamide], for which the IC50 in assay [1] was 6.02 nM; at full-length human CSNK1D, 5.31 nM; in assay [2], 6.02 nM.

Take `O=C(Nc1cc(-c2[nH]c3cc(Cl)cnc3c2-c2ccccn2)ccn1)C(CC(F)F)c1ccc(F)cc1` (stereo not drawn) [Example 87, N-{4-[6-chloro-3-(pyridin-2-yl)-1H-pyrrolo[3,2-b]pyridin-2-yl]pyridin-2-yl}-4,4-difluoro-2-(4-fluorophenyl)butanamide]: the IC50 amounted to 6.08 nM in assay [1], 10.8 nM on full-length human CSNK1D and 6.08 nM in assay [2].

For the molecule `O=C(Nc1cc(-c2[nH]c3nc(OC(F)F)cnc3c2-c2ccccn2)ccn1)C(CC(F)F)c1ccc(F)cc1` (single isomer, unassigned) [Example 106, N-{4-[3-(difluoromethoxy)-7-(pyridin-2-yl)-5H-pyrrolo[2,3-b]pyrazin-6-yl]pyridin-2-yl}-4,4-difluoro-2-(4-fluorophenyl)butanamide], the IC50 in assay [1] was found to be 4.32 nM; on full-length human CSNK1D it was 6.1 nM; in assay [2] it was 4.32 nM.

Take `O=C(Nc1cc(-c2[nH]c3nc(OC(F)F)cnc3c2-c2ccccn2)ccn1)C(CC(F)F)c1ccc(F)cc1` (single isomer, unassigned) [Example 107, N-{4-[3-(difluoromethoxy)-7-(pyridin-2-yl)-5H-pyrrolo[2,3-b]pyrazin-6-yl]pyridin-2-yl}-4,4-difluoro-2-(4-fluorophenyl)butanamide]: the figures for the IC50 (in assay [1]; on full-length human CSNK1D; in assay [2]) were 64.6 nM, 117 nM and 64.6 nM, respectively.

Turning to `Cc1cc(F)nc2c(-c3ccccn3)c(-c3ccnc(NC(=O)C(CC(F)F)c4ccc(F)cc4)c3)[nH]c12` (single isomer, unassigned; (+)) [Example 37, (+)-4,4-difluoro-N-{4-[5-fluoro-7-methyl-3-(pyridin-2-yl)-1H-pyrrolo[3,2-b]pyridin-2-yl]pyridin-2-yl}-2-(4-fluorophenyl)butanamide], the figures for the IC50 (in assay [1]; on full-length human CSNK1D; in assay [2]) were 3.97 nM, 8.32 nM and 3.97 nM, respectively.

With `COCCOc1cc(F)nc2c(-c3ccccn3)c(-c3ccnc(NC(=O)C(CC(F)F)c4ccc(F)cc4)c3)[nH]c12` (single isomer, unassigned) [Example 91, (2R or S)-4,4-difluoro-N-{4-[5-fluoro-7-(2-methoxyethoxy)-3-(pyridin-2-yl)-1H-pyrrolo[3,2-b]pyridin-2-yl]pyridin-2-yl}-2-(4-fluorophenyl)butanamide], the IC50 in assay [1] was found to be 9.57 nM; at full-length human CSNK1D, 23.4 nM; in assay [2], 9.57 nM.

With `O=C(Nc1cc(-c2[nH]c3ccc(F)nc3c2-c2ccc(F)cn2)ccn1)C(CC(F)F)c1ccc(F)cc1` (stereo not drawn) [Example 108, 4,4-difluoro-N-{4-[5-fluoro-3-(5-fluoropyridin-2-yl)-1H-pyrrolo[3,2-b]pyridin-2-yl]pyridin-2-yl}-2-(4-fluorophenyl)butanamide], the IC50 in assay [1] turned out to be 4.55 nM; on full-length human CSNK1D, 5.93 nM; in assay [2], 4.55 nM.
